Data reported in patent US20260265234A1, “RUPATIFEN FUMARATE CRYSTAL FORM C, AND PREPARATION METHOD THEREFOR AND USE THEREOF” (FUJIAN MINDONG REJUENATION PHARMACEUTICAL CO., LTD., priority 2022, published 2026).
Where two headings read alike, the source gives them in different places.

How the values were obtained:
Type in all cases: physicochemical
[1] = Fluidity detection: angle of repose by fixed cone bottom method; settings: average of three, <30° fluidity better, >40° poor
Excerpt: Measurement of angle of repose: a fixed cone bottom method was used, the funnel was fixed on a horizontal coordinate paper at a proper height, so that the distance from a lower opening of the funnel to the coordinate paper was H, the powder was carefully poured into the funnel until the tip of a cone formed below the funnel contacted an outlet of the funnel, the radius r of the cone can be measured by the coordinate paper, and measured three times continuously, and the average value was taken as the result. The angle of repose a was calculated as follows: […]
Judgment standard: when the angle of repose is <30°, the fluidity is better. When the angle of repose is >40°, the fluidity is poor.

[2] = Hygroscopicity analysis (weight gain, Chinese Pharmacopoeia 2020 guideline 9103); settings: 25° C.±1° C., 24 hours; for Weight Gain: constant humidity
Protocol: 1) a dry glass weighing bottle with a plug (with an outer diameter of 50 mm and a height of 15 mm) was taken and placed in a proper constant-temperature dryer (the lower part was placed with ammonium chloride or ammonium sulfate saturated solution) at 25° C.±1° C. one day before the test; and the weight of the weighing bottle was precisely measured (m 1).
2) a proper amount of the test sample was taken, tiled in the weighing bottle, wherein the thickness of the test sample was about 1 mm, and the weight of the test sample was precisely measured (m 2). 3) the weighing bottle was opened, and placed with its bottle cap under the constant temperature and humidity conditions for 24 hours.
4) the bottle cap was covered well and the weight of […] was precisely measured (m 3).
According to 9103 guideline principle on drug hygroscopicity test in four part of Chinese Pharmacopoeia 2020 edition, the description of hygroscopicity characteristics and the definition of hygroscopicity weight gain are as follows:
Deliquescence: enough water is absorb to form liquid.
Extremely hygroscopic: the weight gain due to hygroscopicity is not less than 15%.
Hygroscopic: the weight gain due to hygroscopicity is less than 15% but not less than 2%.
Slightly hygroscopic: the weight gain due to hygroscopicity is less than 2% but not less than 0.2%.
No or almost no hygroscopicity: the weight gain due to hygroscopicity is less than 0.2%.

[3] = Solubility analysis in water and media of different pH, HPLC; settings: for solubility thermodynamic: thermodynamic from solid, read-out: Concentration
Protocol: The excessive test sample was put into a dissolution instrument cup, added with water and an appropriate amount of water-soluble medium with different pH values (pH=1.2, 2.2, 4.0, 4.5, 5.5, 6.8), stirred at 37° C.±1° C. (rotation speed: 100 r/min) for dissolution (more than 6 hours) to form a […] solution, the saturated solution was filtered, the filtrate was diluted with a mobile phase by corresponding times, the concentration was measured by HPLC method, and the solubility was calculated.

[4] = Oil-water distribution coefficient log P (n-octanol-water) by HPLC retention time; settings: HPLC retention time against standards of known log P
Excerpt: The standard substance having known log P (n-octanol-water) was used, the log P (n-octanol-water) of the substance to be tested was detected by HPLC. The principle is based on the fact that the retention time of chemical substances in a long hydrocarbon chain chromatographic column such as C18 column is related to their hydrocarbon-water distribution coefficient. Hydrophilic substances are eluted first, lipophilic substances are eluted later, and the oil-water distribution coefficient and the retention time are in a linear relationship, and the equation is as follows: [formula] [formula] log P: oil-water partition coefficient of samples (n-octanol-water); T0: dead time (measured by uracil here); Tn: retention time of samples by HPLC; according to the above formula, a linear relationship formula can be established by detecting the retention time of the standard substance and the known log P (n-octanol-water). The theoretical value of log P is used as the ordinate, the log K value is used as the abscissa for drawing, the values of a and b are obtained through calculation, and then the retention time (namely the log K value in the table) of samples to be detected is substituted into the equation to calculate the log P (n-octanol-water) value of samples.

[5] = Water for injection, 37° C.±1° C.

| Angle of Repose [1] | Weight Gain [2] | Concentration [3, 5] | Equilibrium Solubility [3, 5] | Concentration ([3]; pH = 1.2, 37° C.±1° C.) | Equilibrium Solubility ([3]; pH = 1.2, 37° C.±1° C.) | Concentration ([3]; pH = 2.2, 37° C.±1° C.) | Equilibrium Solubility ([3]; pH = 2.2, 37° C.±1° C.) | Concentration ([3]; pH = 4.0, 37° C.±1° C.) | Equilibrium Solubility ([3]; pH = 4.0, 37° C.±1° C.) | Concentration ([3]; pH = 4.5, 37° C.±1° C.) | Equilibrium Solubility ([3]; pH = 4.5, 37° C.±1° C.) | Concentration ([3]; pH = 5.5, 37° C.±1° C.) | Equilibrium Solubility ([3]; pH = 5.5, 37° C.±1° C.) | Equilibrium Solubility ([3]; pH = 6.8, 37° C.±1° C.) | log P (n-octanol-water) [4] | Compound | Hygroscopicity [2] | also measured |
| --- | --- | --- | --- | --- | --- | --- | --- | --- | --- | --- | --- | --- | --- | --- | --- | --- | --- | --- |
| 47° | 0.3% | 1790 µg/mL | 448.75 mg/250 ml | 26680 µg/mL | 6669.86 mg/250 ml | 3000 µg/mL | 751.00 mg/250 ml | 2290 µg/mL | 571.88 mg/250 ml | 2990 µg/mL | 747.72 mg/250 ml | 340 µg/mL | 84.93 mg/250 ml | 3.39 mg/250 ml | 2.8 | Cc1cncc(CN2CCC(=C3c4ccccc4CC(=O)c4sccc43)CC2)c1.O=C(O)/C=C/C(=O)O [Crystalline form A, 4-[1-[(5-methylpyridin-3-yl)methyl]piperidyl-4-ylidene]-4,9-dihydro-10H-benzo[4,5]cycloheptyl[1,2-b]thiophen-10-one fumarate] | Slightly hygroscopic (the weight gain due to hygroscopicity is less than 2% but not less than 0.2%) | – |
| 50° | 0.2% | 1220 µg/mL | 305.45 mg/250 ml | 29420 µg/mL | 7355.56 mg/250 ml | 2640 µg/mL | 659.74 mg/250 ml | 1410 µg/mL | 352.76 mg/250 ml | 1360 µg/mL | 339.48 mg/250 ml | – | 44.97 mg/250 ml | 2.56 mg/250 ml | – | Cc1cncc(CN2CCC(=C3c4ccccc4CC(=O)c4sccc43)CC2)c1.O=C(O)/C=C/C(=O)O [Crystalline form B, 4-[1-[(5-methylpyridin-3-yl)methyl]piperidyl-4-ylidene]-4,9-dihydro-10H-benzo[4,5]cycloheptyl[1,2-b]thiophen-10-one fumarate] | Slightly hygroscopic (the weight gain due to hygroscopicity is less than 2% but not less than 0.2%) | solubility thermodynamic ([3]; water-soluble medium of pH 5.5, 37 °C, pH 5.5, aqueous buffer, pH = 5.5, 37° C.±1° C.): 180 µg/mL; solubility thermodynamic ([3]; water-soluble medium of pH 6.8, 37 °C, pH 6.8, aqueous buffer, pH = 6.8, 37° C.±1° C.): 10 µg/mL; chromatographic logP [4]: 2.9 |
| 28° | 0.06% | 2460 µg/mL | 616.34 mg/250 ml | – | 4908.73 mg/250 ml | – | 1013.35 mg/250 ml | 2840 µg/mL | 710.90 mg/250 ml | 3770 µg/mL | 942.80 mg/250 ml | 310 µg/mL | 77.90 mg/250 ml | 4.40 mg/250 ml | 3.2 | Cc1cncc(CN2CCC(=C3c4ccccc4CC(=O)c4sccc43)CC2)c1.O=C(O)/C=C/C(=O)O [Crystalline form C, 4-[1-[(5-methylpyridin-3-yl)methyl]piperidyl-4-ylidene]-4,9-dihydro-10H-benzo[4,5]cycloheptyl[1,2-b]thiophen-10-one fumarate] | No or almost no hygroscopicity (the weight gain due to hygroscopicity is less than 0.2%) | Angle of Repose ([1]; listed as crystalline form C): less than 30 °; solubility according to the classification system of biopharmaceuticals ([3]; medium with pH=6.8): slightly superior to that of other crystal forms; Concentration ([3]; pH = 6.8, 37° C.±1° C.): 18 µg/mL; solubility thermodynamic ([3]; water-soluble medium of pH 1.2, 37 °C, pH 1.2, simulated gastric fluid, pH = 1.2, 37° C.±1° C.): 19600 µg/mL; solubility thermodynamic ([3]; water-soluble medium of pH 2.2, 37 °C, pH 2.2, aqueous buffer, pH = 2.2, 37° C.±1° C.): 4050 µg/mL |
| 49° | 0.4% | 1980 µg/mL | 495.71 mg/250 ml | 24470 µg/mL | 6117.84 mg/250 ml | 3400 µg/mL | 849.73 mg/250 ml | 2530 µg/mL | 633.71 mg/250 ml | 3430 µg/mL | 856.32 mg/250 ml | – | 76.85 mg/250 ml | 3.61 mg/250 ml | 2.7 | Cc1cncc(CN2CCC(=C3c4ccccc4CC(=O)c4sccc43)CC2)c1.O=C(O)/C=C/C(=O)O [Mixed crystal, 4-[1-[(5-methylpyridin-3-yl)methyl]piperidyl-4-ylidene]-4,9-dihydro-10H-benzo[4,5]cycloheptyl[1,2-b]thiophen-10-one fumarate] | Slightly hygroscopic (the weight gain due to hygroscopicity is less than 2% but not less than 0.2%) | – |
